Assays:
[1] = system: paracetamol-induced hepatotoxicity in mice; experiment: Paracetamol-induced hepatotoxicity in mice, serum biochemical parameters (Example I); format: in vivo, Swiss albino mice; settings: for ALP / ALT / AST / Total Bilirubin / Total Protein / Triglyceride: 10 mg/kg p.o. + paracetamol 200 mg/kg p.o., 7 days, serum, mean ± SD, n=6
Source text: 3-OH-DBP (Natreon, Inc., New Brunswick, N.J., synthesized to 99% purity w/w) was in the form of a white free flowing powder. 3,8-(OH)2-DBP (Natreon, Inc., New Brunswick, N.J., synthesized to 99% purity w/w) was in the form of a pale green free flowing powder. Paracetamol (acetaminophen) was in the form of a white solid tablet.
Swiss albino mice of both sexes, weighing approximately 25-30 g, were obtained from National Research Institute of Ayurveda for Drug Development (Govt. of India), Kolkata, and were housed in polypropylene cages at 22±3° C., relative air humidity of 45 to 55%, with 12.00 hr light and dark cycle (lighting on from 6:00 AM to 6:00 PM). Mice were provided standard pellet chow (carbohydrate 65.5%, protein 17.6%, fat 6.6%) and distilled water ad libitum. The mice were acclimatized for one week in the above laboratory conditions, before being used in this experiment. All experiments were conducted between 10.00 hr and 14.00 hr. Principles of laboratory animal care (NIH publication no. 85-23, revised 1985) were followed.
The animals were randomly assigned into four groups of six animals each, as set out in Table 1. […] After 1 hr of last treatment, blood samples were collected and serum was separated.

[2] = Body weight, food intake and water intake during alcohol-induced hepatotoxicity study (Example III); format: in vivo, Swiss Albino mice; settings: for change in body weight / change in food intake / change in water intake: 10 mg/kg p.o. + alcohol, 15 days; for body weight / food intake / water intake: 10 mg/kg p.o. + alcohol 5 g/kg p.o. twice daily, mean ± SD
Method: Swiss Albino male and female mice weighing approximately 30±5 g, 2 month old mice were obtained from National Research Institute of Ayurveda for Drug Development (Govt. of India), Kolkata, and were housed in polypropylene cages at 22±3° C., relative air humidity of 45 to 55%, with 12.00 hr light & dark cycle (lighting on from 6:00 AM to 6:00 PM). Mice were provided a standard pellet chow diet (carbohydrate 65.5%, protein 17.6%, fat 6.6%) and distilled water ad libitum. The mice were acclimatized for one week in the laboratory conditions, before being used in the experiment. All experiments were conducted between 10.00 hr and 14.00 hr. Principles of laboratory animals care (NIH publication no. 85-23, revised 1985) were followed.
Vehicle control animals (“Con Veh”) were administered 0.3% CMC orally for 15 days.
Animals receiving ethanol (“Alc+0.3 CMC”, “3-OH-DBP+Alc”, “3,8-(OH)2-DBP+Alc”) were administered ethanol in 0.3% CMC orally as discussed above.
Results were expressed in terms of mean±SD (n=8). The data were subjected to one way ANOVA followed by Tukey's test using GraphPad Prism 4.0 software to establish statistical significance (*p<0.05, **p<0.01, ***p<0.001 vs. vehicle control; # p<0.05, ## p<0.01, ### p<0.001 vs. animals administered ethanol only).

[3] = system: CCl4-induced hepatotoxicity in mice; experiment: Synergistic hepatoprotective activity of DBPs against CCl4-induced hepatotoxicity (Example IV); settings: for ACP / ALP / ALT / AST / Total Protein: CCl4 1 ml/kg, mean ± SEM, n=4
[4] = female mice, doses 3-OH-DBP 2, 3,8-(OH)2-DBP 10, 1:5 combination 12 mg/kg b.w.
[5] = female mice, doses 3-OH-DBP 10, 3,8-(OH)2-DBP 50, 1:5 combination 60 mg/kg b.w.
[6] = male mice, doses 3-OH-DBP 2, 3,8-(OH)2-DBP 10, 1:5 combination 12 mg/kg b.w.
[7] = male mice, doses 3-OH-DBP 10, 3,8-(OH)2-DBP 50, 1:5 combination 60 mg/kg b.w.

Q: Which “effect on paracetamol-induced hepatotoxicity (ALT, AST, triglyceride, bilirubin vs paracetamol group)” value ([1]; 10 mg/kg body weight, male (Table 2) and female (Table 3) mice) does the source give for O=c1oc2cc(O)ccc2c2ccccc12 [3-OH-DBP, 3-hydroxy-dibenzo-alpha-pyrone] here?
A: Its value is “significantly attenuated and reversed the paracetamol-induced hepatotoxicity”.

Q: And the “hepatoprotective activity against paracetamol, comparison of both test compounds” value ([1]; female mice, 10 mg/kg orally for 7 days, paracetamol 200 mg/kg)?
A: Its value is “almost the same hepatoprotective activity”.

Q: And the ALP ([1]; female mice)?
A: The ALP was 82.04 ± 8.96 IU/L.

Q: What about the ALT ([1]; female mice) of the same molecule?
A: Its ALT is 62.32 ± 15.97 IU/L.

Q: And the AST ([1]; female mice)?
A: Its AST is 62.28 ± 12.46 IU/L.

Q: And the “Total Bilirubin” value ([1]; female mice)?
A: Its value is 0.46 ± 0.26 mg/dL.

Q: What about the Total Protein ([1]; female mice) of the same molecule?
A: The Total Protein was 6.6 ± 0.44 g/dL.

Q: And the Triglyceride ([1]; female mice)?
A: The Triglyceride was 61.05 ± 1.73 mg/dL.

Q: What about the “hepatoprotective activity against paracetamol-induced liver damage, in comparison with 3,8-(OH)2-DBP” value ([1]; male mice, 10 mg/kg orally once daily for 7 days, paracetamol 200 mg/kg) of the same molecule?
A: Its value is “better hepatoprotective activity”.

Q: And the ALP ([1]; male mice)?
A: Its ALP is 80.00 ± 5.64 IU/L.

Q: And the ALT ([1]; male mice)?
A: Its ALT is 65.42 ± 23.50 IU/L.

Q: What about the AST ([1]; male mice) of the same molecule?
A: Its AST is 52.23 ± 3.73 IU/L.

Q: And the “Total Bilirubin” value ([1]; male mice)?
A: Its value is 0.50 ± 0.23 mg/dL.

Q: What about the Total Protein ([1]; male mice) of the same molecule?
A: The Total Protein was 6.27 ± 0.14 g/dL.

Q: And the Triglyceride ([1]; male mice)?
A: The Triglyceride was 97.65 ± 1.96 mg/dL.

Q: What about the “change in body weight” value ([2]; female mice) of the same molecule?
A: Its value is “No significant change”.

Q: And the “change in food intake” value ([2]; female mice)?
A: The value was “No significant change”.

Q: What about the “change in water intake” value ([2]; female mice) of the same molecule?
A: Its value is “No significant change”.

Q: And the body weight ([2]; female mice, Day 0)?
A: The body weight was 26.83 ± 1.60 gm.

Q: And the food intake ([2]; female mice, Day 0)?
A: Its food intake is 8.14 ± 1.67 gm.

Q: What about the water intake ([2]; female mice, Day 0) of the same molecule?
A: The water intake was 4.16 ± 0.60 mL.

Q: What about the body weight ([2]; female mice, Day 5) of the same molecule?
A: Its body weight is 25.5 ± 1.22 gm.

Q: And the water intake ([2]; female mice, Day 5)?
A: The water intake was 4.32 ± 0.28 mL.

Q: What about the body weight ([2]; female mice, Day 10) of the same molecule?
A: Its body weight is 24.33 ± 1.97 gm.

Q: What about the food intake ([2]; female mice, Day 10) of the same molecule?
A: Its food intake is 16.38 ± 1.18 gm.

Q: And the water intake ([2]; female mice, Day 10)?
A: Its water intake is 1.85 ± 0.30 mL.

Q: What about the body weight ([2]; female mice, Day 15) of the same molecule?
A: Its body weight is 25.17 ± 0.75 gm.

Q: And the food intake ([2]; female mice, Day 15)?
A: The food intake was 15.88 ± 0.76 gm.

Q: And the water intake ([2]; female mice, Day 15)?
A: The water intake was 1.84 ± 0.18 mL.

Q: What about the “change in body weight” value ([2]; male mice) of the same molecule?
A: The value was “No significant change”.

Q: And the “change in food intake” value ([2]; male mice)?
A: The value was “No significant change”.

Q: And the “change in water intake” value ([2]; male mice)?
A: Its value is “No significant change”.

Q: What about the body weight ([2]; male mice, Day 0) of the same molecule?
A: Its body weight is 24.33 ± 2.25 gm.

Q: And the food intake ([2]; male mice, Day 0)?
A: The food intake was 14.02 ± 0.06 gm.

Q: What about the water intake ([2]; male mice, Day 0) of the same molecule?
A: Its water intake is 2.05 ± 0.23 mL.

Q: What about the body weight ([2]; male mice, Day 5) of the same molecule?
A: The body weight was 24 ± 1.55 gm.

Q: And the food intake ([2]; male mice, Day 5)?
A: Its food intake is 14.18 ± 0.72 gm.

Q: And the water intake ([2]; male mice, Day 5)?
A: Its water intake is 2 ± 0.27 mL.

Q: And the body weight ([2]; male mice, Day 10)?
A: Its body weight is 25.5 ± 1.05 gm.

Q: And the food intake ([2]; male mice, Day 10)?
A: The food intake was 14.51 ± 0.77 gm.

Q: And the water intake ([2]; male mice, Day 10)?
A: The water intake was 1.93 ± 0.23 mL.

Q: And the body weight ([2]; male mice, Day 15)?
A: The body weight was 25.3 ± 0.52 gm.

Q: What about the food intake ([2]; male mice, Day 15) of the same molecule?
A: The food intake was 14.45 ± 0.78 gm.

Q: And the water intake ([2]; male mice, Day 15)?
A: Its water intake is 1.98 ± 0.25 mL.

Q: And the “hepatoprotective activity (conclusion, Tables 19 and 20)” value ([3]; CCl4-induced hepatotoxicity, male and female mice)?
A: Its value is “hepatoprotective activity in a dose dependent manner”.

Q: And the ACP [3, 4]?
A: The ACP was 48 ± 5.6 (b) U/L.

Q: And the ALP [3, 4]?
A: Its ALP is 75 ± 13 (b) IU/L.

Q: And the ALT [3, 4]?
A: The ALT was 81 ± 7 (b) IU/L.

Q: And the AST [3, 4]?
A: The AST was 90 ± 4.2 (b) IU/L.

Q: What about the “Total Protein” value [3, 4] of the same molecule?
A: The value was 4.7 ± 0.59 g/dL.

Q: And the ACP [3, 5]?
A: The ACP was 55 ± 4.1 (e) U/L.

Q: And the ALP [3, 5]?
A: The ALP was 78 ± 6.9 (e) IU/L.

Q: What about the ALT [3, 5] of the same molecule?
A: Its ALT is 75 ± 7.6*(e) IU/L.

Q: And the AST [3, 5]?
A: The AST was 69 ± 4.9 (e) IU/L.

Q: And the “Total Protein” value [3, 5]?
A: The value was 7.2 ± 0.23 g/dL.

Q: What about the “ACP, difference in values from CCl4 treated mice” value (from here on “ACP, difference in values”) [3, 4] of the same molecule?
A: Its value is “A = (a-b = 32) U/L”.

Q: What about the “ALP, difference in values from CCl4 treated mice” value (“ALP, difference in values” below) [3, 4] of the same molecule?
A: The value was “A = (a-b = 15) IU/L”.

Q: And the “ALT, difference in values from CCl4 treated mice” value (shortened to “ALT, difference in values”) [3, 4]?
A: Its value is “A = (a-b = 6) IU/L”.

Q: And the “AST, difference in values from CCl4 treated mice” value (“AST, difference in values” for short) [3, 4]?
A: Its value is “A = (a-b = 15) IU/L”.

Q: What about the “ACP, difference in values” value [3, 5] of the same molecule?
A: The value was “D = (a-e = 26) U/L”.

Q: What about the “ALP, difference in values” value [3, 5] of the same molecule?
A: The value was “D = (a-e = 12) IU/L”.

Q: What about the “ALT, difference in values” value [3, 5] of the same molecule?
A: Its value is “D = (a-e = 12) IU/L”.

Q: What about the “AST, difference in values” value [3, 5] of the same molecule?
A: Its value is “D = (a-e = 36) IU/L”.

Q: And the ACP [3, 6]?
A: Its ACP is 49 ± 3.6***,#( b) U/L.

Q: What about the ALP [3, 6] of the same molecule?
A: Its ALP is 79 ± 12#(b) IU/L.

Q: And the ALT [3, 6]?
A: The ALT was 72 ± 3.4**(b) IU/L.

Q: And the AST [3, 6]?
A: The AST was 70 ± 4##(b) IU/L.

Q: What about the “Total Protein” value [3, 6] of the same molecule?
A: The value was 5.6 ± 0.37 g/dL.

Q: And the ACP [3, 7]?
A: Its ACP is 47 ± 2.6 (e) U/L.

Q: And the ALP [3, 7]?
A: Its ALP is 78 ± 6.9#(e) IU/L.

Q: And the ALT [3, 7]?
A: The ALT was 67 ± 3.6 (e) IU/L.

Q: And the AST [3, 7]?
A: The AST was 69 ± 2.7 (e) IU/L.

Q: And the “Total Protein” value [3, 7]?
A: The value was 6.3 ± 0.46 g/dL.

Q: And the “ACP, difference in values” value [3, 6]?
A: The value was “A = (a-b = 37) U/L”.

Q: And the “ALP, difference in values” value [3, 6]?
A: Its value is “A = (a-b = 63) IU/L”.

Q: What about the “ALT, difference in values” value [3, 6] of the same molecule?
A: The value was “A = (a-b = 8) IU/L”.

Q: And the “AST, difference in values” value [3, 6]?
A: The value was “A = (a-b = 33) IU/L”.

Q: And the “ACP, difference in values” value [3, 7]?
A: The value was “D = (a-e = 39) U/L”.

Q: What about the “ALP, difference in values” value [3, 7] of the same molecule?
A: The value was “D = (a-e = 64) IU/L”.

Q: And the “ALT, difference in values” value [3, 7]?
A: Its value is “D = (a-e = 13) IU/L”.

Q: What about the “AST, difference in values” value [3, 7] of the same molecule?
A: Its value is “D = (a-e = 34) IU/L”.
